# Test results taken from US20180177749A1, “USE OF CYP EXPRESSION TO DIRECT THERAPEUTIC INTERVENTION IN CANCER” (REGENTS OF THE UNIVERSITY OF MINNESOTA, priority 2016, published 2018).
# What was measured:
# MCF-7 cells [1] = assay: JC-1 mitochondrial membrane potential staining, MCF-7; format: cell-based, human; settings: HBB 20 μM 4 hours, (±)-14,15-EET 1 μM
# Method: (§1) Cells were grown in chamber slides at 37° C. with 5% CO2 and treated with DMSO or HBB for 4 hours before JC-1 dye was added for the MCF-7 or MDA-MB-231 cell line. […] Images of red fluorescence (590 nm) and green fluorescence (530 nm) were acquired using an Olympus 1X70 microscope fitted with an Olympus DP70 digital camera (Olympus, Tokyo, Japan).
# MCF-7 cells [2] = assay: Cellular EET levels by LC-ESI/MS/MS; format: cell-based, human; settings: metformin 5 mM, 6 hours
# Method: Samples were submitted to liquid chromatography-electrospray ionization/multiple reaction monitoring/mass spectrometry (LC-ESI/MRM/MS) analysis in a Thermo Electron Quantum Discovery Max triple quadrupole mass spectrometer (Thermo Finnigan, San Jose, Calif.) coupled with an Agilent 1100 HPLC (Santa Clara, Calif.), using argon as the collision gas. Negative ion monitoring was performed at the following diagnostic product ions: 319 m/z→155 m/z for 8,9-EET; 319 m/z→179 m/z for 11,12-EET; 319 m/z→219 m/z for 14,15-EET; 339 m/z→163 m/z for 8,9-[13C20]EET; 339 m/z→233 m/z for 11,12-[13C20]EET; and 339 m/z→259 m/z for 14,15-[^13C20]EET. Base-line resolution of EET regioisomers was achieved on a Phenomenex Luna C18 (2) reverse phase capillary column (250×0.5 mm, 5-μm particles) using the following mobile phase combinations: isocratic 5% B for 5 min, gradient 5-70% B for 5 min, hold at 70% for 30 min and then 95% for 10 min; A: 0.01% acetic acid in water, B: 0.01% acetic acid in acetonitrile; […] flow rate. A standard curve was obtained by linear regression of the peak area ratio of authentic EET regioisomers against internal standards. The amount of EETs in samples was calculated according to the standard curve. The (±)-5,6-EET regioisomer was not measured because it undergoes rapid internal degradation. […]
# MDA-MB-231 cells [3] = assay: Measurement of OCR and ECAR, MDA-MB-231; format: cell-based, human; settings: t-AUCB 2.5, 5 μM, HBB 20, 40 μM
# Method: Cells were maintained in growth medium consisting of 10% FBS at 37° C. with 5% CO2 and seeded at 100,000 cells per well in XF24-well cell culture microplates (Seahorse Bioscience, North Billirica, Mass.). Concentrated stocks of HBB were prepared in DMSO. HBB was diluted to 10× working concentration in XF assay medium (a non-buffered medium including 2 mM L-glutamine but no sodium bicarbonate (buffering agent), glucose, or sodium pyruvate). Assays were performed in the XF Extracellular Flux Analyzer (Seahorse Bioscience that measures uptake and excretion of metabolic end products in real time). Oxygen consumption rate (OCR) and extracellular acidification rate (ECAR) were measured using an XF Assay Kit. OCR is reported in pmoles/minute and ECAR in mpH/minute. Before analysis, the cells were switched from culture medium to XF assay medium. After baseline measurements, 75 μl of HBB prepared in assay medium was injected into each well to reach final working concentrations. After addition of HBB, OCR and ECAR were measured at 18-minute intervals. […] There were 6 replicates for the studies of the 3-18 and 4-14 cell lines.
# CYP4A11 = target: T1, CYP4A11 (Homo sapiens, UniProt Q02928); assay: CYP4A11-mediated EET biosynthesis; format: biochemical; settings: 25 to 100 uM
# T1 sequence (Q02928 5-519): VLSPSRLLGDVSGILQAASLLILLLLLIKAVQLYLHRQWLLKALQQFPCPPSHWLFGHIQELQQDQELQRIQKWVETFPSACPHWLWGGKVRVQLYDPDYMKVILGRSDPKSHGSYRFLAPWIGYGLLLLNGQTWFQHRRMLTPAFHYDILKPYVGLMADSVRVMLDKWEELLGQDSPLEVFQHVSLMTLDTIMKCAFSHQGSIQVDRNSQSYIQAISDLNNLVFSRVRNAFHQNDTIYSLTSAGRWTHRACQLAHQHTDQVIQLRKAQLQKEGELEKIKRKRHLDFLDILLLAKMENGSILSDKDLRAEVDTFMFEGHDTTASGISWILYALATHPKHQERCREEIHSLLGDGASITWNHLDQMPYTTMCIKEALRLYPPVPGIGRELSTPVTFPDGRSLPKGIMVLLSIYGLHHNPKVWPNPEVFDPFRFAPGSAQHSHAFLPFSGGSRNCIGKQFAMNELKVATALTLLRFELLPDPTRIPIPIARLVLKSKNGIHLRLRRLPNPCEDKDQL
# T47D = assay: Measurement of OCR and ECAR, T47D; format: cell-based, human; settings: 20 and 40 μM
# Method: Cells were maintained in growth medium consisting of 10% FBS at 37° C. with 5% CO2 and seeded at 100,000 cells per well in XF24-well cell culture microplates (Seahorse Bioscience, North Billirica, Mass.). Concentrated stocks of HBB were prepared in DMSO. HBB was diluted to 10× working concentration in XF assay medium (a non-buffered medium including 2 mM L-glutamine but no sodium bicarbonate (buffering agent), glucose, or sodium pyruvate). Assays were performed in the XF Extracellular Flux Analyzer (Seahorse Bioscience that measures uptake and excretion of metabolic end products in real time). Oxygen consumption rate (OCR) and extracellular acidification rate (ECAR) were measured using an XF Assay Kit. OCR is reported in pmoles/minute and ECAR in mpH/minute. Before analysis, the cells were switched from culture medium to XF assay medium. After baseline measurements, 75 μl of HBB prepared in assay medium was injected into each well to reach final working concentrations. After addition of HBB, OCR and ECAR were measured at 18-minute intervals. There were 5 replicates was performed for each data point for MCF-7, MDA-MB-231, T47D and MDA-MB-435 cell lines. There were 6 replicates for the studies of the 3-18 and 4-14 cell lines.
# MDA-MB-231 cells [4] = assay: JC-1 mitochondrial membrane potential staining, MDA-MB-231; format: cell-based, human; settings: HBB 20 μM 4 hours, (±)-14,15-EET 1 μM
# Method: as §1
smiles,measurement,setting,value
"CCCCCCNC(=N)NC(=N)NCc1ccccc1 [HBB, N1-hexyl-N5-benzyl-biguanide]","mitochondrial membrane potential (ΔΨm), JC-1",MCF-7 cells [1],caused mitochondrial depolarization
same,cellular EET levels,MCF-7 cells [2],doesn't lower total EET levels
same,extracellular acidification rate (ECAR),MDA-MB-231 cells [3],least inhibition of ECAR
same,oxygen consumption rate (OCR),MDA-MB-231 cells [3],significant vs. vehicle
same,inhibition of EET production by CYP4A11,CYP4A11,only weakly
same,reduction of OCR and ECAR,T47D,significant vs. vehicle
same,"mitochondrial membrane potential (ΔΨm), JC-1",MDA-MB-231 cells [4],caused mitochondrial depolarization
